# In publication PMC4544630, “Contribution of C-glucosidic ellagitannins to Lythrum salicaria L. influence on pro-inflammatory functions of human neutrophils” (Journal of Natural Medicines, 2014):
# Legend:
# [1] = system: IL-8; assay: IL-8 production by LPS-stimulated neutrophils (ELISA); assay type: cell-based, human; conditions: LPS 100 ng/mL, 24 h, % of stimulated control
# From the text: (§1) Peripheral venous blood was taken from healthy human donors (20–35 years old) in the Warsaw Blood Donation Centre. […] The study conformed to the principles of the Declaration of Helsinki. Neutrophils were isolated using a standard method of dextran sedimentation prior to hypotonic lysis of erythrocytes and to centrifugation in a Ficoll Hypaque gradient. The purity of neutrophil preparations was >97 %, and viability measured by trypan blue exclusion was >98 %. Neutrophils were then resuspended in appropriate medium to perform the selected assay.
# (§2) Neutrophils (2 × 10^5/mL) were cultured in 24-well plates in RPMI 1640 medium with 10 % FBS, 10 mM HEPES, and 2 mM L-glutamine in the absence or presence of LPS (100 ng/mL) for 24 h at 37 °C with 5 % CO2 in the absence or presence of extract at concentrations of 1, 5 and 20 μg/mL, and compounds at concentrations of 1, 5 and 20 μM were added to 1 mL of cell suspension 1 h before the stimuli. After 24 h, the neutrophils were harvested and centrifuged (2000 RPM; 10 min; 4 °C). The amount of IL-8 or MMP-9 released into cell supernatants was measured by enzyme-linked immunosorbent assay (ELISA) following the manufacturer’s instructions (R&D Systems, Minneapolis, MN, USA). PBS was used as a non-stimulated control. Curcumin was used as a positive control, according to Aggarwal and Harikumar and Antoine et al..
# [2] = system: MMP-9; assay: MMP-9 production by LPS-stimulated neutrophils (ELISA); assay type: cell-based, human; conditions: LPS 100 ng/mL, 24 h, % of stimulated control
# From the text: as §1, §2
# [3] = system: elastase; assay: Elastase release from cytochalasin A/f-MLP-stimulated neutrophils (SAAVNA substrate); assay type: cell-based, human; conditions: for Elastase release Mean(%): % of stimulated control; for activity on elastase release: tested concentrations (1, 5, 20 μM)
# From the text: as §1
# Neutrophil elastase release was determined using SAAVNA as a substrate, and […] was measured spectrophotometrically. 100 μL of cell suspension (5 × 10^5/mL) in HBSS was preincubated with 50 μL of compound or extract solution (final concentrations of 1, 5 and 20 μM or μg/mL) for 15 min at 37 °C and then stimulated with 50 μL of cytochalasin A (5 μg/mL) and f-MLP (0.1 μg/mL) for 15 min. The neutrophils were centrifuged (2000 rpm; 10 min; 4 °C). After the addition of 50 μL of SAAVNA solution (1.6 mg/mL) to 100 μL of supernatant, the extent of […] was measured spectrophotometrically for 1 h at intervals of 20 min, at 412 nm using a microplate reader (BioTek). According to Kanashiro et al., quercetin was used as a positive control.
# [4] = system: MPO; assay: MPO release from cytochalasin A/f-MLP-stimulated neutrophils (TMB substrate); assay type: cell-based, human; conditions: for MPO release Mean(%): cytochalasin A/f-MLP, % of stimulated control; for activity on MPO release: all tested concentrations (1, 5, 20 μM)
# From the text: Peripheral venous blood was taken from healthy human donors (20-35 years old) in the Warsaw Blood Donation Centre. […] The study conformed to the principles of the Declaration of Helsinki. Neutrophils were isolated using a standard method of dextran sedimentation prior to hypotonic lysis of erythrocytes and to centrifugation in a Ficoll Hypaque gradient. The purity of neutrophil preparations was >97 %, and viability measured by trypan blue exclusion was >98 %. Neutrophils were then resuspended in appropriate medium to perform the selected assay. Neutrophil MPO release was determined using TMB as a substrate. […] After centrifugation (2000 rpm; 10 min; 4 °C), 100 μL of supernatant was incubated with 50 μL of the TMB liquid substrate system. The reaction was terminated after 20 min by the addition of 2 M hydrochloric acid. The absorbance was measured at […] using a microplate reader (BioTek). Gallic acid was used as a positive control, according to Kroes et al..
# [5] = system: ROS; assay: ROS release from f-MLP-stimulated neutrophils, luminol chemiluminescence; assay type: cell-based, human; conditions: % of stimulated control
# From the text: as §1
# (§3) Generation of oxidants by f-MLP or PMA-stimulated neutrophils was measured using luminol- or lucigenin-dependent chemiluminescence tests. 70 μL of cell suspension (2 × 10^5/mL) in HBSS was incubated with 50 μL of compound or extract solution (final concentrations of 1, 5 and 20 μM or μg/mL) together with 50 μL of luminol (100 μM) or lucigenin (200 μM) solution. ROS production was initiated by the addition of 30 μL of f-MLP (0.1 μg/mL) or PMA (1 μg/mL). Changes in chemiluminescence at 37 °C were measured immediately for 45 min at intervals of 2 min in a microplate reader (Biotek). Ascorbic acid was used as a positive control.
# [6] = system: ROS; assay: ROS release from PMA-stimulated neutrophils, lucigenin chemiluminescence; assay type: cell-based, human; conditions: PMA + lucygenin, % of stimulated control
# From the text: as §1, §3
# [7] = biological target: T1, bovine testis hyaluronidase (Bos taurus, UniProt Q2YDK3); assay: Hyaluronidase activity, USP turbidimetric method modified; assay type: biochemical; conditions: for Hyaluronidase activity Mean(%): % of 100% active enzyme control
# T1 construct: purchased Sigma–Aldrich GmbH (Steinheim, Germany); host or cells: bovine testis
# T1 sequence (Q2YDK3 36-553): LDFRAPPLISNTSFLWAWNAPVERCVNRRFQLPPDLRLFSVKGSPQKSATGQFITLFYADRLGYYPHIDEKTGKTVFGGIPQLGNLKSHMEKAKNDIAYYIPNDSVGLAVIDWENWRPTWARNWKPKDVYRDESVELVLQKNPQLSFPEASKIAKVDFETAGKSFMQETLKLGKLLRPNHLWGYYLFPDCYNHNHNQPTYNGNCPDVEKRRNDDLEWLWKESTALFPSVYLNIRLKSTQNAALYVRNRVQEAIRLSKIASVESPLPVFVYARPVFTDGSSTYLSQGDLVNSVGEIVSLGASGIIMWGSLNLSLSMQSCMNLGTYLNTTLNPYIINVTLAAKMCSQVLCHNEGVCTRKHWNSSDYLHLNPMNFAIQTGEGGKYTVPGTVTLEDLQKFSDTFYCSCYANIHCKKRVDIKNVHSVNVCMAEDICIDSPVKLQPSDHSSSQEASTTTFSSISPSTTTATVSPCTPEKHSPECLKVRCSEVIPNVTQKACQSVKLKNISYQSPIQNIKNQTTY
# From the text: The […] flowering herb was collected from its natural habitat in Umer in the Świętokrzyskie region (Poland) in July 2011. Its identity was confirmed anatomically and morphologically based on its pharmacopoeial monograph in the Department of Pharmacognosy and Molecular Basis of Phytotherapy, Medical University of Warsaw, where the voucher specimen UMER2011 is deposited. […] […]), castalagin ([…] (SB) and […]. 1, 2) from […] performed according to Piwowarski and Kiss. […] Isolated ellagitannins were of >95 % purity (determined by the HPLC-DAD-CAD method). […] Gallic acid (>96 % purity) was purchased from ChromaDex (Santa Ana, USA). Propidium iodide was purchased from BD Biosciences (San Diego, CA, USA). All substances used were of >95 % purity. Phosphate-buffered saline (PBS) was purchased from Gibco (Carlsbad, CA, USA). The influence of extract and ellagitannins on hyaluronidase activity was measured using the USP turbidimetric method modified by Piwowarski et al. […] Heparin was used as a positive control.
# [8] = system: ethanol-induced gastric lesions; design: method as in PMID 12590500; conditions: mouse; orally 50 mg/kg b.w.; cited from earlier work
compound,measurement,setting,value
"O=C1OC[C@H]2OC(=O)c3cc(O)c(O)c(O)c3-c3c(O)c(O)c(O)c4c3C(=O)O[C@H]([C@H]3OC(=O)c5c-4c(O)c(O)c(O)c5[C@H]3O)[C@@H]2OC(=O)c2cc(O)c(O)c(O)c2-c2c1cc(O)c(O)c2O [C, castalagin]",IL-8 production Mean (%),[1]; 1 μM,"92,43%"
same,IL-8 production Mean (%),[1]; 5 μM,"75,24%"
same,IL-8 production Mean (%),[1]; 20 μM,"70,24%"
same,MMP-9 production Mean (%),[2]; 1 μM,"92,70%"
same,MMP-9 production Mean (%),[2]; 5 μM,"88,18%"
same,MMP-9 production Mean (%),[2]; 20 μM,"96,42%"
same,Elastase release Mean(%),[3]; 1 μM,"96,55%"
same,Elastase release Mean(%),[3]; 5 μM,"102,40%"
same,Elastase release Mean(%),[3]; 20 μM,"105,22%"
same,activity on elastase release,[3],completely inactive
same,MPO release Mean(%),[4]; 1 μM,"75,53%"
same,MPO release Mean(%),[4]; 5 μM,"56,44%"
same,MPO release Mean(%),[4]; 20 μM,"29,85%"
same,activity on MPO release,[4],expressed inhibitory activity at all tested concentrations
same,ROS release Mean(%),[5]; 1 μM,"62,41%"
same,ROS release Mean(%),[5]; 5 μM,"40,10%"
same,ROS release Mean(%),[5]; 20 μM,"29,55%"
same,ROS release Mean(%),[6]; 1 μM,"79,28%"
same,ROS release Mean(%),[6]; 5 μM,"60,48%"
same,ROS release Mean(%),[6]; 20 μM,"37,00%"
same,IC50,[7],3.1 ± 0.2 µM
same,Hyaluronidase activity Mean(%),[7]; 1 μM,"87,07%"
same,Hyaluronidase activity Mean(%),[7]; 2 μM,"73,08%"
same,Hyaluronidase activity Mean(%),[7]; 5 μM,"19,92%"
same,Hyaluronidase activity Mean(%),[7]; 20 μM,"3,13%"
same,reduction of ethanol-induced gastric lesions,[8],very potent in the reduction of ethanol-induced gastric lesions
"O=C1OCC2OC(=O)c3cc(O)c(O)c(O)c3-c3c(O)c(O)c(O)c4c3C(=O)OC(C2OC(=O)c2cc(O)c(O)c(O)c2-c2c1cc(O)c(O)c2O)C1OC(=O)c2c-4c(O)c(O)c(O)c2C1O (centres unmarked) [V, vescalagin]",IL-8 production Mean (%),[1]; 1 μM,"98,64%"
same,IL-8 production Mean (%),[1]; 5 μM,"80,63%"
same,IL-8 production Mean (%),[1]; 20 μM,"71,68%"
same,MMP-9 production Mean (%),[2]; 1 μM,"85,96%"
same,MMP-9 production Mean (%),[2]; 5 μM,"99,57%"
same,MMP-9 production Mean (%),[2]; 20 μM,"89,91%"
same,Elastase release Mean(%),[3]; 1 μM,"102,25%"
same,Elastase release Mean(%),[3]; 5 μM,"104,61%"
same,Elastase release Mean(%),[3]; 20 μM,"102,89%"
same,activity on elastase release,[3],completely inactive
same,MPO release Mean(%),[4]; 1 μM,"81,67%"
same,MPO release Mean(%),[4]; 5 μM,"65,70%"
same,MPO release Mean(%),[4]; 20 μM,"41,17%"
same,activity on MPO release,[4],expressed inhibitory activity at all tested concentrations
same,ROS release Mean(%),[5]; 1 μM,"63,47%"
same,ROS release Mean(%),[5]; 5 μM,"46,61%"
same,ROS release Mean(%),[5]; 20 μM,"30,13%"
same,ROS release Mean(%),[6]; 1 μM,"66,84%"
same,ROS release Mean(%),[6]; 5 μM,"50,90%"
same,ROS release Mean(%),[6]; 20 μM,"28,93%"
same,IC50,[7],3.1 ± 0.2 µM
same,Hyaluronidase activity Mean(%),[7]; 1 μM,"88,10%"
same,Hyaluronidase activity Mean(%),[7]; 2 μM,"68,10%"
same,Hyaluronidase activity Mean(%),[7]; 5 μM,"18,39%"
same,Hyaluronidase activity Mean(%),[7]; 20 μM,"5,10%"
"O=C(OC1COC(=O)c2cc(O)c(O)c(O)c2-c2c(cc(O)c(O)c2O)C(=O)OC1C1OC(=O)c2cc(O)c(O)c(O)c2-c2c(O)c(O)c(O)c3c2C(=O)OC1C3O)c1cc(O)c(O)c(O)c1Oc1cc2c(c(O)c1O)-c1c(cc(O)c(O)c1O)C(=O)OCC1OC(=O)c3cc(O)c(O)c(O)c3-c3c(O)c(O)c(O)c4c3C(=O)OC(C1OC2=O)C1OC(=O)c2c-4c(O)c(O)c(O)c2C1O (centres unmarked) [SB, salicarinin B]",IL-8 production Mean (%),[1]; 1 μM,"107,98%"
same,IL-8 production Mean (%),[1]; 5 μM,"78,12%"
same,IL-8 production Mean (%),[1]; 20 μM,"59,17%"
same,MMP-9 production Mean (%),[2]; 1 μM,"99,56%"
same,MMP-9 production Mean (%),[2]; 5 μM,"95,83%"
same,MMP-9 production Mean (%),[2]; 20 μM,"78,81%"
same,Elastase release Mean(%),[3]; 1 μM,"82,54%"
same,Elastase release Mean(%),[3]; 5 μM,"65,03%"
same,Elastase release Mean(%),[3]; 20 μM,"38,16%"
same,MPO release Mean(%),[4]; 1 μM,"67,99%"
same,MPO release Mean(%),[4]; 5 μM,"49,60%"
same,MPO release Mean(%),[4]; 20 μM,"2,93%"
same,ROS release Mean(%),[5]; 1 μM,"61,64%"
same,ROS release Mean(%),[5]; 5 μM,"28,73%"
same,ROS release Mean(%),[5]; 20 μM,"16,39%"
same,ROS release Mean(%),[6]; 1 μM,"64,77%"
same,ROS release Mean(%),[6]; 5 μM,"36,09%"
same,ROS release Mean(%),[6]; 20 μM,"13,06%"
same,IC50,[7],1.6 ± 0.2 µM
same,Hyaluronidase activity Mean(%),[7]; 1 μM,"70,96%"
same,Hyaluronidase activity Mean(%),[7]; 2 μM,"34,62%"
same,Hyaluronidase activity Mean(%),[7]; 5 μM,"-0,07%"
same,Hyaluronidase activity Mean(%),[7]; 20 μM,"0,50%"
